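In this assay, cells in 96-well plates receive the compound at five concentrations for 48 hours. Endpoints are linearly interpolated between the surrounding concentrations. GI50 marks 50% less growth.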 Activity calls are given as the source filed them. Rule as the data show it: active = GI50 up to about 1.1 µM and inactive = higher.
Legend:
Experiment in all cases: NCI-60 cell line screen, 48 h
A549 = system: A549
IGROV-1 = system: IGROV-1
M14 = system: M14
HT-29 = system: HT-29
SK-OV-3 = system: SK-OV-3
RPMI-8226 = system: RPMI-8226
SNB-19 = system: SNB-19
UACC-62 = system: UACC-62
KM-20L2 = system: KM-20L2
HOP-62 = system: HOP-62
SK-MEL-5 = system: SK-MEL-5
786-0 = system: 786-0
CCRF-CEM = system: CCRF-CEM
Malme-3M = system: Malme-3M
SF-539 = system: SF-539
NCI-H460 = system: NCI-H460

Measured: GI50

COc1ccc(/C(Cl)=C/c2ccc(Cl)c(Cl)c2)cc1
inactive: A549 22.4 µM | IGROV-1 38.1 µM | M14 33.2 µM | HT-29 18.3 µM | SK-OV-3 37.8 µM | RPMI-8226 18.2 µM | SNB-19 63.4 µM | UACC-62 24.3 µM | KM-20L2 22.8 µM | HOP-62 27.5 µM | SK-MEL-5 18 µM | 786-0 32.5 µM | CCRF-CEM 21.9 µM | Malme-3M 20.9 µM | SF-539 43.7 µM

Cc1ccc(C(=O)O/N=C2/CCCCC2CN(C)C)cc1 (stereo not given)
inactive: NCI-H460 > 100 µM | A549 > 100 µM | IGROV-1 > 100 µM | M14 > 100 µM | HT-29 > 100 µM | SK-OV-3 > 100 µM | RPMI-8226 > 100 µM | UACC-62 > 100 µM | KM-20L2 > 100 µM | HOP-62 > 100 µM | SK-MEL-5 > 100 µM | 786-0 > 100 µM | CCRF-CEM > 100 µM | Malme-3M > 100 µM | SF-539 > 100 µM

O=[N+]([O-])c1ccc(/C=C/c2ccc(/C=C/c3ccc([N+](=O)[O-])cc3[N+](=O)[O-])cc2)c([N+](=O)[O-])c1
inactive: NCI-H460 > 100 µM | A549 > 100 µM | IGROV-1 > 100 µM | M14 > 100 µM | HT-29 > 100 µM | SK-OV-3 > 100 µM | RPMI-8226 > 100 µM | UACC-62 > 100 µM | KM-20L2 > 100 µM | HOP-62 > 100 µM | SK-MEL-5 > 100 µM | 786-0 > 100 µM | CCRF-CEM > 100 µM | Malme-3M > 100 µM | SF-539 > 100 µM

COc1ccc2c(C(=O)O)cc3cc(OC)c(OC)cc3c2c1
inactive: NCI-H460 > 100 µM | A549 > 100 µM | IGROV-1 > 100 µM | M14 > 100 µM | HT-29 > 100 µM | SK-OV-3 > 100 µM | RPMI-8226 > 100 µM | SNB-19 > 100 µM | UACC-62 > 100 µM | KM-20L2 > 100 µM | SK-MEL-5 43.6 µM | 786-0 > 100 µM | CCRF-CEM > 100 µM | Malme-3M > 100 µM | SF-539 > 100 µM

CC(=O)CC(=O)CCCC(=O)Nc1ccc(Cl)cc1C
inactive: NCI-H460 > 100 µM | A549 > 100 µM | IGROV-1 > 100 µM | M14 > 100 µM | HT-29 > 100 µM | SK-OV-3 > 100 µM | RPMI-8226 > 100 µM | SNB-19 > 100 µM | UACC-62 > 100 µM | KM-20L2 > 100 µM | SK-MEL-5 > 100 µM | 786-0 > 100 µM | CCRF-CEM > 100 µM | Malme-3M > 100 µM | SF-539 > 100 µM
